# Data: patent US12358907B2, “Substituted pyrrolidine amides III” (GRÜNENTHAL GMBH, priority 2019, dated 2025)
# Biological target: glucocorticoid receptor (GAL4 DBD-GR) (Homo sapiens (Human), UniProt P04150)
# Test: GR cell-based assays (GRE agonist / GRE antagonist), CHO-Gal4/GR luciferase reporter
# Details: CHO-Gal4/GR reporter cells, agonist mode (EC50) or antagonist mode against beclometasone (IC50), 6 hour incubation
# Excerpt: Potential selective glucocorticoid receptor modulators of this intervention can be tested for modulation of the activity of the glucocorticoid receptor using cell-based assays. These assays involve a Chinese hamster ovary (CHO) cell line which contains fragments of the glucocorticoid receptor as well as fusion proteins. The glucocorticoid receptor fragments used are capable of binding the ligand (e.g. beclomethasone) to identify molecules that compete for binding with glucocorticoid receptor ligands. In more detail, the glucocorticoid receptor ligand binding domain is fused to the DNA binding domain (DBD) of the transcription factor GAL4 (GAL4 DBD-GR) and is stably integrated into a CHO cell line containing a GAL4-UAS-Luciferase reporter construct. […] After cell lysis the luminescence that is produced by luciferase after addition of the substrate is detected and EC50 or IC50 values can be calcuated. Engagement of molecules which induce gene expression via glucocortocoid receptor binding to the DNA leads to expression of the luciferase gene under the control of the fusion protein GAL4 DBD-GR and therefore to a dose-dependent increase of the luminescence signal. Binding of molecules which repress beclomethasone-induced gene expression of the luciferase gene under the control of the fusion protein GAL4 DBD-GR leads to a dose-dependent reduction of the luminescence signal.
# The reporter cell line CHO-Gal4/GR consisted of a chinese hamster ovary (CHO) cell line (Leibniz Institute DSMZ—German Collection of Microorganisms and Cell Cultures GmbH: ACC-110) containing a firefly luciferase gene under the control of the GR ligand binding domain fused to the DNA binding domain (DBD) of GAL4 (GAL4 DBD-GR) stably integrated into CHO cells. This cell line was established by stable transfection of CHO cells with a GAL4-UAS-Luciferase reporter construct. In a subsequent step the ligand binding domain of the GR cloned into pIRES2-EGFP-GAL4 containing the DNA binding domain of GAL4 from pFA-AT2 was transfected. This fusion construct activated firefly luciferase expression under the control of a multimerized GAL4 upstream activation sequence (UAS). The signal of the emitted luminescence was recorded by the FLIPR^TETRA. This allowed for specific detection of ligand-induced activation of the GR and therefore for the identification of compounds with agonistic properties. The GAL4/UAS reporter was premixed with a vector that constitutively expressed Renilla luciferase, which served as an internal positive control for transfection efficiency.
# The complete culture medium for the assay was: • DMEM F-12 (1:1) MIXTURE (LONZA cat. No: BE04-687F/U1) 500 mL • 5 mL of 100 mM Sodium Pyruvate (LONZA cat. No: BE12-115E) • 25 mL of 7.5% Sodium Bicarbonate (LONZA cat. No BE17-613E) • 6.5 mL of 1 M Hepes (LONZA cat. No: BE17-737E) • 5 mL of 100× Penicillin/Streptomycin (LONZA cat. No DE17-602E) • 50 mL of Fetal Bovine Serum (Euroclone cat. No ECS 0180L) • 0.25 mL of 10 mg/mL Puromycin (InvivoGen cat.: ant-pr-1) • 0.5 mL of 100 mg/mL Zeocin (InvivoGen cat.: ant-zn-1)
# Cryo-preserved CHO-Gal4/GR cells were suspended in complete medium and 5000 cells/25 μl/well were seeded into the wells of 384-well polystyrene assay plates (Thermo Scientific, cat. #4332) and cultured at 37° C., 5% CO2 and 95% humidity. After 24 hours growth medium was carefully removed and replaced by 30 μl Opti-MEM (GIBCO, cat. #31985062) as assay buffer. To test the compounds an 8-point half-log compound dilution curve was generated in 100% DMSO starting from a 2 mM stock and compounds were then diluted 1:50 in Opti-MEM. 10 μl of compounds were then added to the wells containing 30 μl Opti-MEM resulting in a final assay concentration range from 10 μM to 0.003 μM in 0.5% DMSO. Compounds were tested at 8 concentrations in quadruplicate data points. […] Finally, cells were lysed with 20 μl of Triton/Luciferin solution and the signal of the emitted luminescence was recorded at the FLIPR^TETRA for 2 minutes. […]
# Sequence of glucocorticoid receptor (GAL4 DBD-GR) (P04150 524-758): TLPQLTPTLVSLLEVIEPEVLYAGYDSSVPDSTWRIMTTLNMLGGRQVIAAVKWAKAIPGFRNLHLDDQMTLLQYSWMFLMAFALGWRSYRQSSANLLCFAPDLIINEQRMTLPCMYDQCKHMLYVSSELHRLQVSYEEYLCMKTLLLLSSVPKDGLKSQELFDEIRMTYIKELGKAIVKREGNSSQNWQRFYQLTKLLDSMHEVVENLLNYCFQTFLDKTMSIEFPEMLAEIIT
row,IC50,Structure (SMILES)
1,< 100 nM,"CC1(C)C(=O)N(c2ccc3c(cnn3-c3ccc(F)cc3)c2)[C@H](c2ccccc2)[C@H]1NC(=O)c1ncccn1 [Example 43a, N-((2R,3S)-1-(1-(4-fluorophenyl)-1H-indazol-5-yl)-4,4-dimethyl-5-oxo-2-phenylpyrrolidin-3-yl)pyrimidine-2-carboxamide]"
2,< 100 nM,"Cc1ncoc1C(=O)N[C@@H]1[C@@H](c2ccccc2)N(c2ccc3c(cnn3-c3ccc(F)cc3)c2)C(=O)C1(C)C [Example 45a, N-((2R,3S)-1-(1-(4-fluorophenyl)-1H-indazol-5-yl)-4,4-dimethyl-5-oxo-2-phenylpyrrolidin-3-yl)-4-methyloxazole-5-carboxamide]"
3,< 100 nM,"C[C@@]1(CC(F)F)C(=O)N(c2ccc3c(cnn3-c3ccc(F)cc3)c2)[C@H](c2ccccc2)[C@H]1NC(=O)C1CC1 (racemic) [Example 136, N-(rac(2R,3S,4S)-4-(2,2-difluoroethyl)-1-(1-(4-fluorophenyl)-1H-indazol-5-yl)-4-methyl-5-oxo-2-phenylpyrrolidin-3-yl)cyclopropanecarboxamide]"
4,< 100 nM,"O=C(N[C@H]1[C@H](F)C(=O)N(c2ccc3c(cnn3-c3ccc(F)cc3)c2)[C@@H]1c1ccccc1)C1CC1 [Example 95, N-((2R,3R,4S)-4-fluoro-1-(1-(4-fluorophenyl)-1H-indazol-5-yl)-5-oxo-2-phenylpyrrolidin-3-yl)cyclopropanecarboxamide]"
5,< 100 nM,"Cc1scnc1C(=O)N[C@@H]1[C@@H](c2ccccc2)N(c2ccc3c(cnn3-c3ccc(F)cc3)c2)C(=O)C1(C)C [Example 39a, N-((2R,3S)-1-(1-(4-fluorophenyl)-1H-indazol-5-yl)-4,4-dimethyl-5-oxo-2-phenylpyrrolidin-3-yl)-5-methylthiazole-4-carboxamide]"

# Same assay, conditions: read-out: IC50 or EC50
row,IC50,Structure (SMILES)
1,< 100 nM,"C[C@@H]1C(=O)N(c2ccc3c(cnn3-c3ccc(F)cc3)c2)[C@H](c2ccc(Cl)s2)[C@H]1NC(=O)c1cccnc1 (racemic) [Example 111, N-[rac-(2S,3S,4S)-2-(5-Chloro-thiophen-2-yl)-1-[1-(4-fluorophenyl)-1H-indazol-5-yl]-4-methyl-5-oxo-pyrrolidin-3-yl]-pyridine-3-carboxylic acid amide]"
2,< 100 nM,"C[C@@H]1C(=O)N(c2ccc3c(cnn3-c3ccc(F)cc3)c2)[C@H](c2ccccc2Cl)[C@H]1NC(=O)C(C)(F)F (racemic) [Example 47, N-[rac-(2R,3S,4S)-2-(2-Chlorophenyl)-1-[1-(4-fluorophenyl)-1H-indazol-5-yl]-4-methyl-5-oxo-pyrrolidin-3-yl]-2,2-difluoro-propionamide]"
3,1000 to 15000 nM,"O=C(N[C@@H]1[C@@H](c2ccccc2)N(c2ccc3c(cnn3-c3ccc(F)cc3)n2)C(=O)C12CC2)C1CC1 (racemic) [Example 33, N-[rac-((6R,7S)-5-(1-(4-fluorophenyl)-1H-pyrazolo[4,3-b]pyridin-5-yl)-4-oxo-6-phenyl-5-azaspiro[2.4]heptan-7-yl)]cyclopropanecarboxamide]"
4,100 to 1000 nM,"COc1ccc([C@@H]2[C@@H](NC(=O)c3ncccn3)[C@H](C)C(=O)N2c2ccc3c(cnn3-c3ccc(F)cc3)c2)cc1 (racemic) [Example 85, N-[rac-(2R,3S,4S)-1-[1-(4-Fluorophenyl)-1H-indazol-5-yl]-2-(4-methoxyphenyl)-4-methyl-5-oxo-pyrrolidin-3-yl]-pyrimidine-2-carboxylic acid amide]"
5,< 100 nM,"C[C@H]1C(=O)N(c2ccc3c(cnn3-c3ccc(F)cc3)c2)[C@H](c2ccc(Cl)s2)[C@H]1NC(=O)C1CC1 (racemic) [Example 124, N-[rac-(2S,3S,4R)-2-(5-Chloro-thiophen-2-yl)-1-[1-(4-fluorophenyl)-1H-indazol-5-yl]-4-methyl-5-oxo-pyrrolidin-3-yl]-cyclopropanecarboxylic acid amide]"
6,< 100 nM,"C[C@@H]1C(=O)N(c2ccc3c(cnn3-c3ccc(F)cc3)c2)[C@H](c2ccccc2)[C@H]1NC(=O)C1CC1 (racemic) [Example 46, N-[rac-(2R,3S,4S)-1-[1-(4-Fluorophenyl)-1H-indazol-5-yl]-4-methyl-5-oxo-2-phenyl-pyrrolidin-3-yl]-cyclopropanecarboxylic acid amide]"
7,< 100 nM,"Cc1cccc([C@@H]2[C@@H](NC(=O)c3ccn(C)n3)[C@H](C)C(=O)N2c2ccc3c(cnn3-c3ccc(F)cc3)c2)c1 (racemic) [Example 75, N-[rac-(2R,3S,4S)-1-[1-(4-Fluorophenyl)-1H-indazol-5-yl]-4-methyl-2-m-tolyl-5-oxo-pyrrolidin-3-yl]-1-methyl-1H-pyrazole-3-carboxylic acid amide]"
8,1000 to 15000 nM,"Cn1cc(C[C@H]2C(=O)N(c3ccc4c(cnn4-c4ccc(F)cc4)c3)[C@H](c3ccccc3)[C@H]2NC(=O)C2CC2)cn1 [Example 139b, N-((2R,3S,4R)-1-(1-(4-fluorophenyl)-1H-indazol-5-yl)-4-((1-methyl-1H-pyrazol-4-yl)methyl)-5-oxo-2-phenylpyrrolidin-3-yl)cyclopropanecarboxamide]"
9,100 to 1000 nM,"O=C(N[C@H]1C(CCc2ccccc2)C(=O)N(c2ccc3c(cnn3-c3ccc(F)cc3)c2)[C@@H]1c1ccccc1)C1CC1 (single isomer, unassigned) [Example 127]"
10,100 to 1000 nM,"Cc1noc(C[C@@H]2C(=O)N(c3ccc4c(cnn4-c4ccc(F)cc4)c3)[C@H](c3ccccc3)[C@H]2NC(=O)C2CC2)n1 [Example 138, N-((2R,3S,4S)-1-(1-(4-fluorophenyl)-1H-indazol-5-yl)-4-((3-methyl-1,2,4-oxadiazol-5-yl)methyl)-5-oxo-2-phenylpyrrolidin-3-yl)cyclopropanecarboxamide]"
11,1000 to 15000 nM,"Cn1cc(C[C@@H]2C(=O)N(c3ccc4c(cnn4-c4ccc(F)cc4)c3)[C@H](c3ccccc3)[C@H]2NC(=O)C2CC2)cn1 [Example 139a, N-((2R,3S,4S)-1-(1-(4-fluorophenyl)-1H-indazol-5-yl)-4-((1-methyl-1H-pyrazol-4-yl)methyl)-5-oxo-2-phenylpyrrolidin-3-yl)cyclopropanecarboxamide]"
12,< 100 nM,"C[C@H]1C(=O)N(c2ccc3c(cnn3-c3ccc(F)cc3)c2)[C@H](c2ccc(Cl)s2)[C@H]1NC(=O)C(C)(F)F (racemic) [Example 125, N-[rac-(2S,3S,4R)-2-(5-Chloro-thiophen-2-yl)-1-[1-(4-fluorophenyl)-1H-indazol-5-yl]-4-methyl-5-oxo-pyrrolidin-3-yl]-2,2-difluoro-propionamide]"
13,100 to 1000 nM,"C[C@]1(F)C(=O)N(c2ccc3c(cnn3-c3ccc(F)cc3)c2)[C@H](c2ccccc2)[C@H]1NC(=O)C1CC1 (racemic) [Example 128, N-[rac-(2R,3R,4R)-4-Fluoro-1-[1-(4-fluorophenyl)-1H-indazol-5-yl]-4-methyl-5-oxo-2-phenyl-pyrrolidin-3-yl]-cyclopropanecarboxylic acid amide]"
14,100 to 1000 nM,"CC1(C)C(=O)N(c2ccc3c(cnn3-c3ccc(F)cc3)c2)[C@@H](c2ccccc2)[C@@H]1NC(=O)c1cccnc1 [Example 42b, N-((2S,3R)-1-(1-(4-fluorophenyl)-1H-indazol-5-yl)-4,4-dimethyl-5-oxo-2-phenylpyrrolidin-3-yl)nicotinamide]"
15,100 to 1000 nM,"C[C@@H]1C(=O)N(c2ccc3c(cnn3-c3ccc(F)cc3)c2)[C@H](c2ccccc2Cl)[C@H]1NC(=O)C1CC1 (racemic) [Example 112, N-[rac-(2R,3S,4S)-2-(2-Chlorophenyl)-1-[1-(4-fluorophenyl)-1H-indazol-5-yl]-4-methyl-5-oxo-pyrrolidin-3-yl]-cyclopropanecarboxylic acid amide]"
